From patent publication US5962487A, “Antipicornaviral compounds and methods for their use and preparation” (Agouron Pharmaceuticals, Inc., priority 1997, dated 1999)

Legend:
[1] = biological target: T1, Rhinovirus 3C protease (RVP) serotype-14 (Human rhinovirus 14, UniProt P03303); test: Inhibition of Rhinovirus Protease, serotype 14 (FRET assay); format: biochemical; conditions: for kinact/KI: read-out: kobs/I; for Ki / inhibition at 10 µM: RVP serotype-14; for Ki: 10 minute preincubation with 50 nM RVP prior to addition of substrate, read-out: INHIB (Ki); for inhibition at 10 µM: 10 μM compound, 10 minute preincubation with 50 nM RVP, read-out: INHIB (percent inhibition)
T1 construct: Recombinant Rhinovirus 3C proteases from serotypes 14, 16, 2 or 89 were prepared; made in house
Description: Stock solutions (50 mM, in DMSO) of various compounds were prepared; dilutions were in the same solvent. Recombinant Rhinovirus 3C proteases from serotypes 14, 16, 2 or 89 were prepared by the following standard chromatographic procedures: (1) ion exchange using Q Sepharose Fast Flow from Pharmacia; (2) affinity chromatography using Affi-Gel Blue from Biorad; and (3) sizing using Sephadex G-100 from Pharmacia. Assays contained 2% DMSO, 50 mM tris pH 7.6, 1 mM EDTA, a compound at the indicated concentrations, approximately 1 μM substrate, and 50-100 nM protease. For Ki determinations, the compound and the enzyme were preincubated for 10 minutes at 30° C. prior to addition of the substrate (substrate start). The kobs/I values were obtained from reactions initiated by addition of enzyme rather than substrate. RVP activity is measured in the fluorescence resonance energy transfer assay. The substrate was (N-terminal) DABCYL-(Gly-Arg-Ala-Val-Phe-Gln-Gly-Pro-Val-Gly)-EDANS. In the uncleaved peptide, the EDANS fluorescence was quenched by the proximal DABCYL moiety. When the peptide was cleaved, the quenching was relieved, and activity was measured as an increase in fluorescence signal.
In the above table, all data is for RVP serotype-14 unless otherwise noted in parentheses. All strains of human rhinovirus (HRV) were purchased from American Type Culture Collection (ATCC), except for serotype 14, which was produced from the infectious cDNA clone constructed and supplied to us by Dr. Roland Rueckert at the Institute for Molecular Virology, University of Wisconsin, Madison, Wis. The column designated INHIB represents the percent inhibition, with the concentration of the compound in μM indicated in parentheses, unless Ki was assigned as designated by (Ki), at 10 minute preincubation with 50 nM RVP prior to addition of substrate was used. The data in the column designated kobs/I was measured from progress curves in enzyme start experiments.

HRV-14 = test: Antirhinoviral HI-HeLa Cell Culture Assay (cell protection, XTT), HRV-14; format: cell-based, human rhinovirus; conditions: for TI: CC50/EC50, HRV serotype-14, 2880 min; for EC50: Rhinovirus B, HRV14, 48 h, HRV serotype-14 infected HI-HeLa cells, XTT, two days
Description: In the Cell Protection Assay, the ability of compounds to protect cells against HRV infection was measured by the XTT dye reduction method. This method is described in O. S. Weislow, R. Kiser, D. L. Fine, J. Bader, R. H. Shoemaker, and M. R. Boyd, J. Natl. Cancer Inst. 1989, 81, 577-586, which document is entirely incorporated herein by reference.
(§1) HI-HeLa cells were infected with HRV-14 (unless otherwise noted) at a multiplicity of infection (m.o.i.) of 0.13 (virus particles/cell) or mock-infected with medium only. Infected or mock-infected cells were resuspended at 8×10^5 cells per mL and incubated with appropriate concentrations of compounds of formulas I and II. Two days later, XTT/PMS was added to test plates, and the amount of formazan produced was quantified spectrophotometrically at 450/650 nm. The EC50 was calculated as the concentration of compound that increased the percentage of formazan production in compound-treated, virus-infected cells to 50% of that produced by compound-free mock-infected cells. The 50% cytotoxic dose (CC50) was calculated as the concentration of compound that decreased the percentage of formazan produced in compound-treated, mock-infected cells to 50% of that produced in compound-free, mock-infected cells. The therapeutic index (TI) was calculated by dividing the CC50 by the EC50.
(§2) All strains of human rhinovims (HRV) for use in this assay were purchased from American Type Culture Collection (ATCC), except for HRV serotype-14, which was produced from the infectious cDNA clone, constructed and supplied to us by Dr. Roland Rueckert at the Institute for Molecular Virology, University of Wisconsin, Madison, Wis. HRV stocks were propagated, and antiviral assays were performed in HI-HeLa (ATCC). Cells were grown in Minimal Essential Medium, available from Life Technologies, with 10% fetal bovine serum.
The compounds were tested against control compounds WIN 51711, WIN 52084, and WIN 54954, all obtained from Sterling-Winthrop Pharmaceuticals, and control compound Pirodavir, obtained from Janssen Pharmaceuticals. Antiviral data obtained for the test compounds are shown in Table 2 where all data are for HRV serotype-14 unless otherwise noted in parentheses.

in vitro = format: cell-based; conditions: human, hi-hela cells
Description: as §1, §2

T1 sequence (P03303 1538-1719): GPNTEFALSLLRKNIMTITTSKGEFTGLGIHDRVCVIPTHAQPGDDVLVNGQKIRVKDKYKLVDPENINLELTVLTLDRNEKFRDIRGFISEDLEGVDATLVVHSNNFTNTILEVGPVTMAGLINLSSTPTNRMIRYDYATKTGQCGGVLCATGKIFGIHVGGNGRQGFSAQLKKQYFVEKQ

SMILES | kinact/KI [1] [M⁻¹ s⁻¹] | TI (HRV-14) | EC50 (HRV-14) [µM] | CC50 at 48 h (in vitro) [µM] | Ki [1] [µM] | inhibition at 10 µM [1] [%]
CCOC(=O)/C(C)=C/[C@H](CCC(N)=O)NC(=O)[C@H](Cc1ccc(C)cc1)N(C)C(=O)[C@@H](NC(=O)SC1CCCC1)C(C)(C)C [Compound 49] | 1910 | 710 | 0.1 | 71 |  | 
CCOC(=O)/C=C/[C@H](CCC(N)=O)NC(=O)Cn1c(-c2ccccc2)ncc(NC(=O)OCc2ccccc2)c1=O [Compound 30, Ethyl-3-([(5-CBZ-Amino)-2-Phenyl-6-Oxo-1,6-Dihydro-1-Pyrimidinyl]-L-Gln)-E-Propenoate] | 163 | 25 | 7.2 | 177 | 55 | 
CCOC(=O)/C=C/[C@H](CCC(N)=O)NC(=O)[C@H](Cc1ccccc1)n1ccn(NC(=O)OCc2ccccc2)c1=O [Compound 33, Ethyl-3-(CBZ-amino-L-N-[(1,3-Dihydro-imidazol-2-one)-Phe]-L-Gln)-E-Propenoate] | 361 |  | > 320 | > 320 |  | 86
CC(C)C[C@H](NC(=O)SC1CCCC1)C(=O)N(C)[C@@H](Cc1ccccc1)C(=O)N[C@H](/C=C/C(=O)OCc1ccccc1)CCC(N)=O [Compound 56] | 15400 | 13 | 1.6 | 20 |  | 
CCOC(=O)/C=C/[C@H](CCC(N)=O)NC(=O)[C@H](Cc1ccccc1)N(C)C(=O)[C@H](CC(C)C)NC(=O)SCC [Compound 11, Ethyl-3-(Ethylthiocarbonyl-L-Leu-L-N-Me-Phe-L-Gln)-E-Propenoate] | 12000 | > 603 | 0.53 | > 320 |  | 
CCSC(=O)N[C@@H](CC(C)C)C(=O)N(C)[C@@H](Cc1ccccc1)C(=O)N[C@H](/C=C/C(=O)N1CCc2ccccc21)CCC(N)=O [Compound 7, 1-(2',3'-Dihydroindolin-1-yl)-3-(Ethylthiocarbonyl-L-Leu-L-N-Me-Phe-L-Gln)-E-Propenone] | 3820 | 37 | 1.3 | 47.9 |  | 
CCOC(=O)/C=C/C(CCC(N)=O)NC(=O)[C@@H]1CCc2ncc(N(C(=O)SC3CCCC3)C(=O)SC3CCCC3)c(=O)n21 (stereo partly shown) [Compound 50] | 14000 | > 31 | 3.2 | > 100 |  | 
CCOC(=O)/C=C/[C@H](CCC(N)=O)NC(=O)[C@H](Cc1ccccc1)N(C)C(=O)[C@H](CC(C)C)NC(=O)SCC1CCCCC1 [Compound 40] | 12100 | 141 | 0.32 | 45 |  | 
CCOC(=O)/C=C/[C@H](CCC(N)=O)NC(=O)C1CN(S(=O)(=O)c2ccccc2)CCN1C(=O)[C@H](CC(C)C)NC(=O)OCc1ccccc1 (mixture of isomers) [Compound 29, Ethyl-3-[CBZ-L-Leu-DL-(4-Phenylsulfonyl)-Pipz-L-Gln]-E-Propenoate] | 45 | 5 | 46 | 251 |  | 
CCOC(=O)/C=C/C(CCC(N)=O)NC(=O)[C@@H]1CCc2ncc(NC(=O)SCC)c(=O)n21 (stereo partly shown) [Compound 52] | 31100 | > 3 | 32 | > 100 |  | 
CCOC(=O)/C(C)=C/[C@H](CCC(N)=O)NC(=O)[C@H](Cc1ccccc1)N(C)C(=O)[C@H](CC(C)C)NC(=O)SCC1CCCCC1 [Compound 41] | 2350 | 9 | 2 | 18 |  | 
CCOC(=O)/C(C)=C/[C@H](CCC(N)=O)NC(=O)[C@H](Cc1ccccc1)N(C)C(=O)[C@H](CC(C)C)NC(=O)SC1CCCCC1 [Compound 43] | 2200 | 16 | 3.5 | 56.2 |  | 
CCOC(=O)/C=C/C(CCC(N)=O)NC(=O)[C@@H]1CCc2ncc(NC(=O)SC3CCCC3)c(=O)n21 (stereo partly shown) [Compound 51] | 43900 | > 8 | 12.6 | > 100 |  | 
CN(C(=O)[C@H](CCc1ccccc1)NC(=O)SCc1ccccc1)[C@@H](Cc1ccccc1)C(=O)N[C@H](/C=C1\CCOC1=O)CCC(N)=O [Compound 10, 2-(Bezylthiocarbonyl-L-hPhe-L-N-Me-Phe-L-Gln)-E-(α-Vinyl-γ-Butyrolactone)] | 41800 | 31 | 1.8 | 56.2 | 2 | 
CCSC(=O)N[C@H](C(=O)N(C)[C@@H](Cc1ccccc1)C(=O)N[C@H](/C=C1\CCOC1=O)CCC(N)=O)C(C)C [Compound 12, 2-(Ethylthiocarbonyl-L-Val-L-N-Me-Phe-L-Gln)-E-(α-Vinyl-γ-Butyrolactone)] | 5070 | > 76 | 4.2 | > 320 |  | 
CCOC(=O)/C=C/[C@H](CCC(N)=O)NC(=O)[C@H](Cc1ccccc1)N(C)C(=O)[C@H](CCc1ccccc1)NC(=O)SCc1ccccc1 [Compound 9, Ethyl-3-(Benzylthiocarbonyl-L-hPhe-L-N-Me-Phe-L-Gln)-E-Propenoate] | 57000 | 225 | 0.25 | 56.2 | 4.4 | 
CCOC(=O)/C(C)=C/[C@H](CCC(N)=O)NC(=O)[C@H](Cc1ccccc1)N(C)C(=O)[C@H](CC(C)C)NC(=O)SCC(C)C [Compound 45] | 2300 | 32 | 1.78 | 56.2 |  | 
CCOC(=O)/C=C/[C@H](CCC(N)=O)NC(=O)[C@H](Cc1ccccc1)n1cc[nH]c1=O [Compound 32, Ethyl-3-(L-N-[(1,3-Dihydro-imidazol-2-one)-Phe]-L-Gln)-E-Propenoate] | 98 | > 2 | 158 | > 320 |  | 
CCOC(=O)/C=C/C(CCC(N)=O)NC(=O)[C@H](Cc1ccccc1)N1CC[C@@H](NC(=O)SC2CCCCC2)C1=O (stereo partly shown) [Compound 54] |  | > 6 | 17.8 | > 100 |  | 55
CCOC(=O)/C(C)=C/[C@H](CCC(N)=O)NC(=O)[C@H](Cc1ccccc1)N(C)C(=O)[C@H](CC(C)C)NC(=O)SC(C)C [Compound 39] | 2330 | 113 | 1.6 | 180 |  | 
CCOC(=O)C=CC(CCC(N)=O)NC(=O)C1CC(OC(C)(C)C)CN1C(=O)C(CC(C)C)NC(=O)OCc1ccccc1 (stereo not shown) [Compound 23] | 605 | 22 | 10 | 224 | 60 | 
Cc1cc(CCCCCCCOc2ccc(C3=NCCO3)cc2)on1 [WIN 51711, reference compound] |  | > 77 | 0.78 | > 60 |  | 
Cc1cc(CCCCCCCOc2ccc(C3=N[C@@H](C)CO3)cc2)on1 [WIN 52084, reference compound] |  | > 143 | 0.07 | > 10 |  | 
